How the values were obtained:
[1] = test system: T. b. brucei GVR35; parameters: method as in PMID 19620327; conditions: cited from earlier work
[2] = Tolerability of dose regimens in infected vervet monkeys; assay type: in vivo, vervet monkey; conditions: all IM DB829 and oral DB868 dose regimens
Text: Parasitaemia post-infection was monitored daily, using ear-prick capillary blood, through the completion of DB868 and DB829 treatment. Following the last drug dose (LDD), blood and CSF samples were examined for trypanosomes at 1, 4, 7, and 14 days to determine the end of treatment (EoT) response; monkeys which were positive for trypanosomes in either blood or CSF at the end of this 14-day period were classified as treatment failures/not cured while those that were free of trypanosomes were classified as provisionally cured. After the 14-day EoT evaluations, parasitaemia examinations were continued twice weekly to ≥ 300 days post-LDD as described previously. Additionally, physical examinations and haematological assessments were carried out once weekly up to 28 days post-LDD, once every two weeks between 28 and 100 days post-LDD, and monthly thereafter until the end of the study as described previously. At 300 days post-LDD, monkeys were considered cured if they remained normal clinically and parasite-free in the blood and CSF. Pharmacokinetic outcomes were monitored for a minimum of 60 days post-LDD as described previously. To facilitate the collection of blood and CSF for these assessments, the monkeys were anaesthetised with an IM injection of ketamine HCl (10–15 mg/kg) and diazepam (0.5 mg/kg). […]

## N=C(N)c1ccc(-c2ccc(-c3ccc(C(=N)N)cn3)o2)nc1 [DB829, 2,5-bis(5-amidino-2-pyridyl)furan]
[1]
  efficacy in the murine model of second stage HAT: fully curative
[2]
  tolerability of dose regimens: well tolerated

From paper PMC4318582, “Chemotherapy of Second Stage Human African Trypanosomiasis: Comparison between the Parenteral Diamidine DB829 and Its Oral Prodrug DB868 in Vervet Monkeys” (PLoS Neglected Tropical Diseases, 2015)
